Test results from article PMC4856274, “Mnn10 Maintains Pathogenicity in Candida albicans by Extending α-1,6-Mannose Backbone to Evade Host Dectin-1 Mediated Antifungal Immunity” (PLoS Pathogens, 2016).

Molecular target: T1, Mnn10 (MBP-fused Mnn10) (Candida albicans, UniProt Q59UR2)
T1 construct: non-transmembrane region, residues 70-335, MBP fusion (pMAL-p5X), E. coli BL21 (DE3) pLysS, amylose resin; tag kept
Assay: mannosyltransferase assay, ANTS labelling of products, FACE gel
Assay type: biochemical
Conditions: 5 mM GDP-D-mannose, 10 mM α-1,6-D-mannobiose, 10 mM MnCl2, 50 mM HEPES pH 7.2, 30 °C, 1 h

T1 sequence (Q59UR2 entry or part of it): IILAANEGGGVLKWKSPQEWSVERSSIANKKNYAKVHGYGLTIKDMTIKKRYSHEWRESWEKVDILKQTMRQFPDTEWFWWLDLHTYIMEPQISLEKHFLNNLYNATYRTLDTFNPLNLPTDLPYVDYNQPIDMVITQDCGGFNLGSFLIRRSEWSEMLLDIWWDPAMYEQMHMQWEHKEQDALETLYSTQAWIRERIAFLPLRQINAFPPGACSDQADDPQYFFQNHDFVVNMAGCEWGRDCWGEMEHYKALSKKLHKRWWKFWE

SMILES	mannosyltransferase assay, ANTS labelling of products, FACE gel (donor)	mannosyltransferase assay, ANTS labelling of products, FACE gel (acceptor)
Nc1nc2c(ncn2[C@@H]2O[C@H](COP(=O)(O)OP(=O)(O)O[C@H]3O[C@H](CO)[C@@H](O)[C@H](O)[C@@H]3O)[C@@H](O)[C@H]2O)c(=O)[nH]1 [GDP-mannose]	Mnn10 catalyzes the transformation of GDP-mannose to α-1,6-mannobiose to form mannotriose and mannotetraose	
OC[C@H]1O[C@H](OC[C@H]2OC(O)[C@@H](O)[C@@H](O)[C@@H]2O)[C@@H](O)[C@@H](O)[C@@H]1O (stereo partly drawn) [α-1,6-mannobiose]		required α-1,6-linked mannobiose as an acceptor and GDP-mannose as a donor
